Measurements published in ChEMBL document CHEMBL5620415, “Design, synthesis and anti-hepatic fibrosis activity of novel diphenyl vitamin D receptor agonists” (Eur J Med Chem, 2023).
The source made the active and inactive calls.

How the values were obtained:
Mus musculus [1] = assay: Anti-fibrotic effect in bile duct ligation (BDL) surgery-induced hepatic fibrosis C57BL/6 mouse model assessed as inhibition of Ctgf expression in liver at 500 ug/kg, po five times a week for 2 weeks by RT-qPCR analysis; assay type: functional, organism-based; details: dose 500.0 µg/kg
Mus musculus [2] = assay: Anti-fibrotic effect in improving CCl4-induced hepatic fibrosis C57BL/6 mouse model assessed as decrease in liver to kidney brightness ratio at 500 ug/kg, po five times a week for 2 weeks by qualitative ultrasound imaging analysis; assay type: functional, organism-based; details: dose 500.0 µg/kg
[3] = Toxicity in CCl4-induced hepatic fibrosis C57BL/6 mouse model assessed as serum hypercalcemia at 500 ug/kg, po five times a week for 2 weeks by calcium assay kit; assay type: organism-based; details: in vivo, 0.5 mg/kg, 336 h, dose 500 µg/kg
[4] = Toxicity in bile duct ligation (BDL) surgery-induced hepatic fibrosis C57BL/6 mouse model assessed as serum hypercalcemia at 500 ug/kg, po five times a week for 2 weeks by calcium assay kit; assay type: organism-based; details: in vivo, 0.5 mg/kg, 336 h, dose 500 µg/kg
[5] = molecular target: T1, Vitamin D3 receptor (Homo sapiens) (UniProt P11473); assay: Agonist activity at Vitamin D receptor in human LX-2 cells assessed as transcriptional activity by measuring induction of CYP24A expression at 0.5 uM by RT-qPCR analysis relative to control; assay type: cell-based; details: filed as agonist
T1 sequence (whole entry): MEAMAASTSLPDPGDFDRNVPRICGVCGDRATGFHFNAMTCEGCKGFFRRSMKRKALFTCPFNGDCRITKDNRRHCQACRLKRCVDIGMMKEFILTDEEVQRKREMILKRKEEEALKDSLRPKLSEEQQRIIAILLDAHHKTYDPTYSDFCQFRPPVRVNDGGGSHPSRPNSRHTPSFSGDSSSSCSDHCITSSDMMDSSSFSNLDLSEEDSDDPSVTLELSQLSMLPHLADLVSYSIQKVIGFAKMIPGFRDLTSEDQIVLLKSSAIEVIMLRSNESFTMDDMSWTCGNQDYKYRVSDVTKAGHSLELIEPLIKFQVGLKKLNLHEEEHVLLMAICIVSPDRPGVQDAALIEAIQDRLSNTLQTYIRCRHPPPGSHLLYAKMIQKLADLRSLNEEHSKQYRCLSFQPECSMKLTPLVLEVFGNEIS

Mus musculus [6] = assay: Anti-fibrotic effect in bile duct ligation (BDL) surgery-induced hepatic fibrosis C57BL/6 mouse model assessed as inhibition of collagen deposition in liver at 500 ug/kg, po five times a week for 2 weeks by Hematoxylin-Eosin (H&E) staining based assay; assay type: functional, organism-based; details: dose 500.0 µg/kg
Mus musculus [7] = assay: Anti-fibrotic effect in CCl4-induced hepatic fibrosis C57BL/6 mouse model assessed as inhibition of serum ALT level at 500 ug/kg, po five times a week for 2 weeks; assay type: functional, organism-based; details: dose 500.0 µg/kg
Mus musculus [8] = assay: Anti-fibrotic effect in bile duct ligation (BDL) surgery-induced hepatic fibrosis C57BL/6 mouse model assessed as inhibition of Timp-1 expression in liver at 500 ug/kg, po five times a week for 2 weeks by RT-qPCR analysis; assay type: functional, organism-based; details: dose 500.0 µg/kg
Mus musculus [9] = assay: Anti-fibrotic effect in CCl4-induced hepatic fibrosis C57BL/6 mouse model assessed as inhibition of Timp-1 expression in liver at 500 ug/kg, po five times a week for 2 weeks by RT-qPCR analysis; assay type: functional, organism-based; details: dose 500.0 µg/kg

Measured: Activity

OCc1ccc(/C=C/c2ccc(OCCCC(F)(F)F)cc2)cc1CO
Non-Toxic: [3] | [4]
active: all other assays above
